# Results reported in article PMC10223284, “Category-Based Toxicokinetic Evaluations of Data-Poor Per- and Polyfluoroalkyl Substances (PFAS) using Gas Chromatography Coupled with Mass Spectrometry” (Toxics, 2023).
# Values joined by “and” are separate entries in the source; they are usually repeats but may differ in a detail not shown here. Equal values may be shown once. Read-outs that look alike come from different tables or passages of the source.
# How the values were obtained:
# human plasma [1] = settings: for PPB_Stab_Fail: plasma
# human primary cells = settings: cited from earlier work
# [2] = system: pooled human cryopreserved primary hepatocyte suspensions; experiment: Hepatic metabolic stability (hepatocyte clearance) assay, substrate depletion; assay type: in vitro ADME; settings: for Linear Regression Results, Best-Fit Values, Slope: hepatocyte time course; for Clint.1.Med: s9
# How it was run: (§1)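 Substrate depletion of 1 μM compound, 37 °C, with pooled human hepatocytes (50-donor, 50,000 cells/100 μL) in William's E; samples quenched in acetonitrile up to 240 min, triplicate time points. Intrinsic clearance (μL/min/million hepatocytes) and half-life derived from semi-log slope, background-adjusted using media-only and inactivated-cell controls; compounds with ≥50% abiotic loss at T120 excluded.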
# in vitro [3] = settings: both, human, plasma
# human plasma [4] = system: human plasma
# [5] = Abiotic loss in negative controls of the hepatocyte clearance assay (cell-free media, metabolically inactivated hepatocytes); assay type: in vitro ADME; settings: for No Cells BkgdCl, Clearance / HT BkgdCl, Clearance / Hep_Stab_Fail: 1 μM; for HT BkgdCl, Clearance / Hep_Stab_Fail: both; for Hep_Stab_Fail: 120 min; for HT BkgdCl, Slope: heat treated hepatocytes control; for HT BkgdCl, Slope / No Cells BkgdCl, Slope: 0 vs 240 min; for No Cells BkgdCl, Slope: no cells control
# How it was run: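 Abiotic stability was checked with media-only and inactivated-hepatocyte controls, run at T0 and T240 or, on rerun, at more time points. Compound at 1 μM, 37 °C, acetonitrile quench. Loss rates served for background subtraction, and ≥50% loss by T120 meant exclusion.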
# [6] = In vitro-in vivo extrapolation (IVIVE) to Css and administered equivalent dose (AED); design: species or system human; settings: for Clhep: IVIVE, hepatocyte Clint scaled to whole-liver clearance; for AED: administered equivalent dose from LOEC and Css; for Fub: fub=fup/(B:P), Fub set to 1 if needed; for CLint: scaled with HPGL 110 mill cells/g, Vl 1596 g
# How it was run: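 Administered equivalent doses come from pairing modelled Css with literature in vitro LOECs. Css itself is predicted by IVIVE from experimental hepatic Clint, scaled up to whole-liver clearance in L/h, and experimental fraction unbound in plasma. That fraction was adjusted to unbound-in-blood via blood:plasma partitioning.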
# [7] = Hepatic metabolic stability (hepatocyte clearance) assay, substrate depletion; assay type: in vitro ADME, human; settings: both sexes, human, hepatocytes
# How it was run: as §1
# in vitro [8] = settings: both, human, plasma; remark: listed apart in the source
# [9] = BioSeek lowest-observed effect concentration used for AED
# [10] = minimum lowest-observed effect concentration, BioSeek platform
# [11] = Fraction Unbound (fu), Run-specific Avg
# [12] = Assuming 1 mg/kg/day dose rate, BW 70 kg
# [13] = human steady-state plasma concentration, assuming 1 mg/kg/day dosage
Structure (SMILES),Unstable (human plasma [1]),"Fstable.Med (human plasma [1]; both, human, 5 h, 10 μM)","Mean Stability (human plasma [1]; both, human, 5 h, 10 μM)","Stability (T5hr/ T1hr), Run-specific Avg (human plasma [1]; both, human, 5 h, 10 μM)","PPB_Stab_Fail (human plasma [1]; both, human, 5 h, 10 μM)",LOEC (human primary cells; [9]) [µM],LOEC (human primary cells; [10]) [µM],"Linear Regression Results, Best-Fit Values, Slope [2]",Clint.1.Med ([2]; human),"fraction unbound at 5 h, 10 μM (in vitro [3]; [11])","fraction unbound at 5 h, 10 μM (in vitro [3]; Mean Fu)","fraction unbound at 5 h, 10 μM (in vitro [3]; Mean fu)","Fup.Med (human plasma [4]; both, human, 5 h, 10 μM)","Fup.point (human plasma [4]; both, human, 5 h, 10 μM)","No Cells BkgdCl, Clearance [5]","HT BkgdCl, Clearance ([5]; human)",Hep_Stab_Fail ([5]; human),half-life at 1 μM ([5]; buffer) [h],"HT BkgdCl, Slope [5]","No Cells BkgdCl, Slope [5]",further results
NC(=O)C(F)(F)C(F)(F)F [Pentafluoropropionamide],Y,0.19,0.711,0.719,0,20.00,20,-0.00227,0,0.81,0.809,0.809,0.754,0.789,7.66,6.324,0,3.02,-0.003162,-0.00383,"Concentration (nM), Time 120 min ([2]; both, human, 120 min, 1 μM): 809.577 nM; In Vitro Clint ([2]; both, human, hepatocytes, 1 μM): 0.00 μL/min/10^6 cells; in vitro CLint ([2]; both, human, hepatocytes, 1 μM): 0 mL/min/106 cells; Bkgd-Sub Clearance (µL/min/106 hepatocytes) ([2]; human, hepatocytes): 0.00 µL/min/106 hepatocytes; Bkgd_adj_Clint ([2]; human, hepatocytes): 0.00; Unadj Clint ([2]; human, hepatocytes): 0.00; Unadj in vitro Clint ([2]; human, hepatocytes): 0.00; clearance rate in hepatocytes ([2]; human, hepatocytes): no clearance; fraction unbound at 5 h, 10 μM (in vitro [3]; Fraction Unbound (fu), replicates A, B, C): 0.788; half-life at 1 μM ([5]; both sexes, human, hepatocytes): 3.65 h; Css [6, 12]: 0.44 mg/L and 2.69 uM; Clhep [6]: 0.000 L/h; AED [6]: 7.4314 mg/kg/day; Fub [6]: 1; Css [6, 13]: 2.69 µM; Css ([6]; human steady-state plasma concentration, assuming 1 mg/kg/day dosage, listed as pentafluoropropionamide): 2.1 to 2.7 µM; CLint [6]: 0 µL/min"
"OCC(F)(F)OC(F)(F)C(F)(F)OC(F)(F)CO [1H,1H,8H,8H-Perfluoro-3,6-dioxaoctane-1,8-diol]",–,0.999,1.067,1.023,0,7.00,7,-0.003361,0,0.21,0.207,0.207,0.191,0.207,3.324,0,0,6.95,-0.0009212,-0.00166,"Time 1 hr, Run-specific Avg (human plasma [1]; both, human, 1 h, 10 μM): 8416.46; Time 5 hr, Run-specific Avg (human plasma [1]; both, human, 5 h, 10 μM): 8614.09; half-life at 1 μM [7]: 3.44 h; hepatocyte CLint at 1 μM ([7]; Bkgd Adj Clint): 6.72 µL/min/1e6 cells; hepatocyte CLint at 1 μM ([7]; Bkgd-Sub Clearance (µL/min/106 hepatocytes)): 6.72 µL/min/1e6 cells; hepatocyte CLint at 1 μM ([7]; Bkgd_adj_Clint): 6.72 µL/min/1e6 cells; hepatocyte CLint at 1 μM ([7]; In Vitro Clint): 6.72 µL/min/1e6 cells; hepatocyte CLint at 1 μM ([7]; Linear Regression Results, Best-Fit Values, Clearance): 6.72 µL/min/1e6 cells; hepatocyte CLint at 1 μM ([7]; Unadj Clint): 6.72 µL/min/1e6 cells; hepatocyte CLint at 1 μM ([7]; Unadj in vitro Clint): 6.72 µL/min/1e6 cells; fraction unbound at 5 h, 10 μM (in vitro [3]; Fraction Unbound (fu)): 0.188; Aqueous Fraction, Run-specific Avg (human plasma [4]; both, human, 5 h, 10 μM): 1857.99; fup (human plasma [4]; both, human, 5 h, 10 μM): 0.2069; Css [6, 12]: 0.13 mg/L and 0.43 uM; Clhep [6]: 20.549 L/h; AED [6]: 16.1536 mg/kg/day; Fub [6]: 0.3762; Css [6, 13]: 0.43 µM; CLint [6]: 1179763 µL/min"
"FC(F)(F)C(F)(C(F)(F)F)C(F)(F)C(F)(F)CC1CO1 (centres unmarked) [3-(Perfluoro-3-methylbutyl)-1,2-propenoxide]",–,–,–,–,1,–,–,–,–,–,–,–,–,–,–,–,1,–,–,–,"remaining at 5 h, 10 μM (in vitro [8]): 0%"
"C=CC(=O)OCC(F)(F)C(F)F [2,2,3,3-Tetrafluoropropyl acrylate]",Y,0.000712,–,–,1,–,–,–,–,–,–,–,1.93E-08,0.234,–,–,1,–,–,–,"remaining at 5 h, 10 μM (in vitro [8]): 0%; Uncertain (human plasma [4]): Y"
